In ChEMBL document CHEMBL4321812, “Structure-based rational design of staurosporine-based fluorescent probe with broad-ranging kinase affinity for kinase panel application” (Bioorg Med Chem Lett, 2019):
pKd: −log10 of the molar value.

Experiments:
[1] = target: Mitogen-activated protein kinase kinase kinase 9 (Homo sapiens, UniProt P80192); assay: Binding affinity to recombinant N-terminal His-FLAG-GST-tagged MAP3K9 (unknown origin) (110 to 422 residues) expressed in baculovirus infected Sf9 insect cells incubated for 1 hr by TR-FRET assay
[2] = target: Fibroblast growth factor receptor 3 (Homo sapiens, UniProt P22607); assay: Binding affinity to recombinant N-terminal His-FLAG-GST-tagged FGFR3 (unknown origin) (436 to 806 residues) expressed in baculovirus infected Sf9 insect cells incubated for 1 hr by TR-FRET assay
[3] = target: Serine/threonine-protein kinase 32A (Homo sapiens, UniProt Q8WU08); assay: Binding affinity to recombinant full-length N-terminal His-FLAG-tagged STK32A (unknown origin) expressed in baculovirus infected Sf9 insect cells incubated for 1 hr by TR-FRET assay
[4] = target: Non-receptor tyrosine-protein kinase TNK1 (Homo sapiens, UniProt Q13470); assay: Binding affinity to recombinant human N-terminal GST-tagged TNK1 (106 to 390 residues) expressed in baculovirus expression system using CSKtide as substrate incubated for 1 hr by TR-FRET assay
[5] = target: Mitogen-activated protein kinase kinase kinase 7 (Homo sapiens, UniProt O43318); assay: Binding affinity to recombinant full-length N-terminal His-FLAG-tagged MAP3K7 (unknown origin) expressed in baculovirus infected Sf9 insect cells incubated for 1 hr by TR-FRET assay
[6] = target: Ribosomal protein S6 kinase beta-1 (Homo sapiens, UniProt P23443, T412E); assay: Binding affinity to recombinant human full length N-terminal GST-tagged RPS6KB1 T412E mutant expressed in baculovirus expression system using S6K2 peptide as substrate incubated for 1 hr by TR-FRET assay
[7] = target: Tyrosine-protein kinase Blk (Homo sapiens, UniProt P51451); assay: Binding affinity to recombinant human full length N-terminal GST-tagged BLK expressed in baculovirus expression system using srctide as substrate incubated for 1 hr by TR-FRET assay
[8] = target: Dual specificity protein kinase CLK1 (Homo sapiens, UniProt P49759); assay: Binding affinity to recombinant N-terminal His-FLAG-GST-tagged CLK1 (unknown origin) (129 to 484 residues) expressed in baculovirus infected Sf9 insect cells incubated for 1 hr by TR-FRET assay
[9] = target: Serine/threonine-protein kinase Sgk3 (Homo sapiens, UniProt Q96BR1); assay: Binding affinity to recombinant full-length N-terminal His-FLAG-GST-tagged SGK3 (unknown origin) (119 to 496 residues) expressed in baculovirus infected Sf9 insect cells incubated for 1 hr by TR-FRET assay
[10] = target: Dual specificity mitogen-activated protein kinase kinase 6 (Homo sapiens, UniProt P52564); assay: Binding affinity to recombinant human full length N-terminal GST-tagged MAP2K6 expressed in baculovirus expression system using p38alpha (9 to 352 residues) as substrate incubated for 1 hr by TR-FRET assay
[11] = target: Protein-tyrosine kinase 2-beta (Homo sapiens, UniProt Q14289); assay: Binding affinity to recombinant full-length N-terminal His-FLAG-tagged PTK2B (unknown origin) expressed in baculovirus infected Sf9 insect cells incubated for 1 hr by TR-FRET assay
[12] = target: MAP kinase-interacting serine/threonine-protein kinase 2 (Homo sapiens, UniProt Q9HBH9); assay: Binding affinity to recombinant human full-length N-terminal GST-tagged MKNK2 expressed in baculovirus expression system using RS peptide as substrate incubated for 1 hr by TR-FRET assay
[13] = target: Glycogen synthase kinase-3 beta (Homo sapiens, UniProt P49841); assay: Binding affinity to recombinant full-length N-terminal His-FLAG-GST-tagged GSK3B (unknown origin) expressed in baculovirus infected Sf9 insect cells incubated for 1 hr by TR-FRET assay
[14] = target: Serine/threonine-protein kinase PAK 6 (Homo sapiens, UniProt Q9NQU5); assay: Binding affinity to recombinant human full-length N-terminal GST-tagged PAK6 expressed in baculovirus expression system using SGKtide as substrate incubated for 1 hr by TR-FRET assay
[15] = target: Tyrosine-protein kinase CSK (Homo sapiens, UniProt P41240); assay: Binding affinity to recombinant full-length N-terminal His-FLAG-tagged CSK (unknown origin) expressed in baculovirus infected Sf9 insect cells incubated for 1 hr by TR-FRET assay
[16] = target: Tyrosine-protein kinase Lck (Homo sapiens, UniProt P06239); assay: Binding affinity to recombinant human full length N-terminal GST-tagged LCK expressed in baculovirus expression system using srctide as substrate incubated for 1 hr by TR-FRET assay
[17] = target: Tyrosine-protein kinase receptor TYRO3 (Homo sapiens, UniProt Q06418); assay: Binding affinity to recombinant full-length N-terminal His-FLAG-GST-tagged TYRO3 (unknown origin) expressed in baculovirus infected Sf9 insect cells incubated for 1 hr by TR-FRET assay
[18] = target: Tyrosine-protein kinase BTK (Homo sapiens, UniProt Q06187); assay: Binding affinity to recombinant human full-length N-terminal GST-tagged BTK expressed in baculovirus expression system using srctide as substrate incubated for 1 hr by TR-FRET assay
[19] = target: Calcium/calmodulin-dependent protein kinase kinase 1 (Homo sapiens, UniProt Q8N5S9); assay: Binding affinity to recombinant full-length N-terminal His-FLAG-GST-tagged CAMKK1 (unknown origin) expressed in baculovirus infected Sf9 insect cells incubated for 1 hr in presence of calmodulin by TR-FRET assay
Ephrin type-A receptor 1 = Ephrin type-A receptor 1 (Homo sapiens, UniProt P21709); assay: Binding affinity to recombinant full-length N-terminal His-FLAG-GST-tagged EPHA1 (unknown origin) (586 to 976 residues) expressed in baculovirus infected Sf9 insect cells incubated for 1 hr by TR-FRET assay
[20] = target: Mitogen-activated protein kinase kinase kinase kinase 2 (Homo sapiens, UniProt Q12851); assay: Binding affinity to recombinant full-length N-terminal His-FLAG-GST-tagged MAP4K2 (unknown origin) expressed in baculovirus infected Sf9 insect cells incubated for 1 hr by TR-FRET assay
[21] = target: Tyrosine-protein kinase JAK3 (Homo sapiens, UniProt P52333); assay: Binding affinity to recombinant full-length N-terminal His-FLAG-GST-tagged JAK3 (unknown origin) (795 to 1124 residues) expressed in baculovirus infected Sf9 insect cells incubated for 1 hr by TR-FRET assay
[22] = target: Serine/threonine-protein kinase 3 (Homo sapiens, UniProt Q13188); assay: Binding affinity to recombinant full-length N-terminal His-FLAG-GST-tagged STK3 (unknown origin) expressed in baculovirus infected Sf9 insect cells incubated for 1 hr by TR-FRET assay
[23] = target: Serine/threonine-protein kinase N2 (Homo sapiens, UniProt Q16513); assay: Binding affinity to recombinant full-length N-terminal His-FLAG-GST-tagged PKN2 (unknown origin) expressed in baculovirus infected Sf9 insect cells incubated for 1 hr by TR-FRET assay
[24] = target: cAMP-dependent protein kinase catalytic subunit beta (Homo sapiens, UniProt P22694); assay: Binding affinity to recombinant full-length N-terminal His-FLAG-GST-tagged PRKACB (unknown origin) expressed in baculovirus infected Sf9 insect cells incubated for 1 hr by TR-FRET assay

Sequence of Mitogen-activated protein kinase kinase kinase kinase 2 (Q12851 whole entry, the tested form may be a part): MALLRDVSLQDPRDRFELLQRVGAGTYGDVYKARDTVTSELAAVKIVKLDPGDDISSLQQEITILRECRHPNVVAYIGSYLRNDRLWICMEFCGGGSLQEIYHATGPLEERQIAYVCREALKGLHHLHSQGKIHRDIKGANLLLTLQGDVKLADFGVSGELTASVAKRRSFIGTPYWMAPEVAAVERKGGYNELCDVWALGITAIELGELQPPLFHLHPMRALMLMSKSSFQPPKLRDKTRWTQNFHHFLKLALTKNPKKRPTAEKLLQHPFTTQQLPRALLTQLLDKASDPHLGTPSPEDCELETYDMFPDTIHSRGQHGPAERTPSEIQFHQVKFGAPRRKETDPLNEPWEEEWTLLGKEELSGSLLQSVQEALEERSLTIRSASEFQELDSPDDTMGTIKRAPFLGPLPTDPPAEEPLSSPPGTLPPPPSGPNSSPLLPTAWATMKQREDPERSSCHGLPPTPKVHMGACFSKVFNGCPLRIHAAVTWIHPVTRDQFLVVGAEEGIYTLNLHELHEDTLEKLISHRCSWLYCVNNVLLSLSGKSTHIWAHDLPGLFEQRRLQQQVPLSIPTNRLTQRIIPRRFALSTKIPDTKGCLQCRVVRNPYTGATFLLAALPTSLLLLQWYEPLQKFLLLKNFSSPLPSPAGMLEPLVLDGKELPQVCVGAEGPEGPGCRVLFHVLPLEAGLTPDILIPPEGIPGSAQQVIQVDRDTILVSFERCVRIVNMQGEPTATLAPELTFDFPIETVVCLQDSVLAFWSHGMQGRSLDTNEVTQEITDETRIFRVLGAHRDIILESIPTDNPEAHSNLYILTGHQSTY
Sequence of Fibroblast growth factor receptor 3 (P22607 whole entry, the tested form may be a part): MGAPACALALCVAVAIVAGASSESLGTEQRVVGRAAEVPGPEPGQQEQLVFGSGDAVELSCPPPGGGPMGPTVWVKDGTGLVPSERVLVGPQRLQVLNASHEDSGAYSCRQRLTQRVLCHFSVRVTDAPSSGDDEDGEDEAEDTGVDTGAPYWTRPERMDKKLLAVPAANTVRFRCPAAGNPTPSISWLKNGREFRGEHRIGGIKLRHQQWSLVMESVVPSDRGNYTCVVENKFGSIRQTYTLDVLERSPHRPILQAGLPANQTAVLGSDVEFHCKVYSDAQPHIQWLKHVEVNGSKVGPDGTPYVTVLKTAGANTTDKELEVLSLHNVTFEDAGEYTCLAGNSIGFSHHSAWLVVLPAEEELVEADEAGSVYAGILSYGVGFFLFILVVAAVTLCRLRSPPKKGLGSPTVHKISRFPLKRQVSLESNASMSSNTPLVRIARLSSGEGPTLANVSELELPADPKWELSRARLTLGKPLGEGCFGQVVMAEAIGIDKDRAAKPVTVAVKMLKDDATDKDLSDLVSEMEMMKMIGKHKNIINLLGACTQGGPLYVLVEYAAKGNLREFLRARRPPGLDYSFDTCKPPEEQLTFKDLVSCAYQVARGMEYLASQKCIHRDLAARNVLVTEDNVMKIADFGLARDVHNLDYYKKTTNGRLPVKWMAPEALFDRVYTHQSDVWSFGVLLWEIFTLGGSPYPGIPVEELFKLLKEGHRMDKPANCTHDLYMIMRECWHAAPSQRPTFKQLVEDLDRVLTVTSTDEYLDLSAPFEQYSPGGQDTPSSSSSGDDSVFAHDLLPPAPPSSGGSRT
Sequence of Mitogen-activated protein kinase kinase kinase 7 (O43318 whole entry): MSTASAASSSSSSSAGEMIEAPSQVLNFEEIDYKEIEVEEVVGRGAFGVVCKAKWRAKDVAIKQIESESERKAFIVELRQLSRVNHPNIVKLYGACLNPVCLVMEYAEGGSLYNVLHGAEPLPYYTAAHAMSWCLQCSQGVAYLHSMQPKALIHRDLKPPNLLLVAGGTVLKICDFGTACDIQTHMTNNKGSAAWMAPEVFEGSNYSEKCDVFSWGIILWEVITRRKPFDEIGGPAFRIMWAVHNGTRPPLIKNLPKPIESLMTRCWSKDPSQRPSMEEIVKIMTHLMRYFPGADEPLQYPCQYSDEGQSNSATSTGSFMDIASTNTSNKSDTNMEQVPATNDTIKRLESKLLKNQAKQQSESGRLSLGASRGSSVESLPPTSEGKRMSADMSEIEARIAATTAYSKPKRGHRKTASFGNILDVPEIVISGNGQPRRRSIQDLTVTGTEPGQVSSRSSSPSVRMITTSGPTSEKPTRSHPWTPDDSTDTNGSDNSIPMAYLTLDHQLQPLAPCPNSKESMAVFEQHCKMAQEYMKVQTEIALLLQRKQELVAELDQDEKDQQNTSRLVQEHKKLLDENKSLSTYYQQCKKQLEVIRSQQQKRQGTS
Sequence of Tyrosine-protein kinase Blk (P51451 whole entry, the tested form may be a part): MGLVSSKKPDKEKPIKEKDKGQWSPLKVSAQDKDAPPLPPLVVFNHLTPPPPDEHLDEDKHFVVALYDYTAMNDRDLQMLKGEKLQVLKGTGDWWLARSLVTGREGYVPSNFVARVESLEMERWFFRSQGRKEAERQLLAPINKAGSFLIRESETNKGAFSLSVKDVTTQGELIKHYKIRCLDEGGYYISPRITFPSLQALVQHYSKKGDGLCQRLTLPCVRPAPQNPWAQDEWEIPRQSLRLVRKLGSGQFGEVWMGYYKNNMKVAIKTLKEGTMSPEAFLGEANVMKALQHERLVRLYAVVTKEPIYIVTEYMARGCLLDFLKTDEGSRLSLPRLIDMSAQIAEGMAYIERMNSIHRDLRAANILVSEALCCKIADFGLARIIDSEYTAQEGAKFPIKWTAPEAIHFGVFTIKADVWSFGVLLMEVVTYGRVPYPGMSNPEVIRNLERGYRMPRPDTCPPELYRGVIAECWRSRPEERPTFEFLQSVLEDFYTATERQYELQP
Sequence of Dual specificity protein kinase CLK1 (P49759 whole entry, the tested form may be a part): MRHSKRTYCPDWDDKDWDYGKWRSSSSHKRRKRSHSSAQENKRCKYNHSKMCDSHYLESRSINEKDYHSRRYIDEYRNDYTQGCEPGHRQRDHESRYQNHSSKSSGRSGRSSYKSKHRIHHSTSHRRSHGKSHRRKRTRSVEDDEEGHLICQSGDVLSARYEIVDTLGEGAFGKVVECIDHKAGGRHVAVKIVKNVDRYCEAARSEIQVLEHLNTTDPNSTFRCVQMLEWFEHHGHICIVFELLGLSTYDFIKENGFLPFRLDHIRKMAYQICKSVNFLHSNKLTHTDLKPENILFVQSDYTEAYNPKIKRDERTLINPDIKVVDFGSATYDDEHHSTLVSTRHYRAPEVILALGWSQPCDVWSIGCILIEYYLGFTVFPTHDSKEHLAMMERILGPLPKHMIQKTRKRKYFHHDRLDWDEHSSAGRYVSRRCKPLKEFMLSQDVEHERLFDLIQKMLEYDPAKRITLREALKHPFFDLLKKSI
Sequence of Tyrosine-protein kinase BTK (Q06187 whole entry): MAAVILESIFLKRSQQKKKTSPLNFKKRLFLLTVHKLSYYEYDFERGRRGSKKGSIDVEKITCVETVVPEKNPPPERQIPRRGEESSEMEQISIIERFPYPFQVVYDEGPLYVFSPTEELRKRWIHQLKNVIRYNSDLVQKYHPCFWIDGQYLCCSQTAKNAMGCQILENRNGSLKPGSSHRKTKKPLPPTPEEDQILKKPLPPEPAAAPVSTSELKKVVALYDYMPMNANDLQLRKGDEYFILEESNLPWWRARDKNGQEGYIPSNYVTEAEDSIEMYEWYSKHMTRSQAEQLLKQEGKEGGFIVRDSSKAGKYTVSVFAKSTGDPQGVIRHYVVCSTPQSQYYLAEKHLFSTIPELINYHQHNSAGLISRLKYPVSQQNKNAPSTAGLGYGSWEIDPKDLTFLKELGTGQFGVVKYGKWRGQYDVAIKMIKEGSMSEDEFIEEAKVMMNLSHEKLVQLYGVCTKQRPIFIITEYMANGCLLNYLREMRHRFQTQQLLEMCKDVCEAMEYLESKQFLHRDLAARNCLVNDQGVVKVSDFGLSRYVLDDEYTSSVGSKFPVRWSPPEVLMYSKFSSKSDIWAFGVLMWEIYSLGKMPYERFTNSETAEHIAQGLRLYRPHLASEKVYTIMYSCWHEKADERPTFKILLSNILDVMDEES
Sequence of Tyrosine-protein kinase Lck (P06239 whole entry): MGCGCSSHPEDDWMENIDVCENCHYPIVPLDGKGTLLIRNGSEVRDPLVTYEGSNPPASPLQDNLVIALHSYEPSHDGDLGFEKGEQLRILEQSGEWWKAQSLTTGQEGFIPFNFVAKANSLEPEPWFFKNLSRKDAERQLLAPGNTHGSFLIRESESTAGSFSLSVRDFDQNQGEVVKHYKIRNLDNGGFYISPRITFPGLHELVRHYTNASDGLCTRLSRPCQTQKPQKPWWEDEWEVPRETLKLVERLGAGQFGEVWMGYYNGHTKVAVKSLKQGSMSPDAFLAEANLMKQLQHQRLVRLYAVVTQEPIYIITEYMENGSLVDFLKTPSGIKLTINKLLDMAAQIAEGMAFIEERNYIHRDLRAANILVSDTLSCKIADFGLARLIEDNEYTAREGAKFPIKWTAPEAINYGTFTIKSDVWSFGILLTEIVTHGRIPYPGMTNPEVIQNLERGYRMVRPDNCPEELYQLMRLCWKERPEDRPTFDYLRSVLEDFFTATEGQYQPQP
Sequence of Tyrosine-protein kinase CSK (P41240 whole entry): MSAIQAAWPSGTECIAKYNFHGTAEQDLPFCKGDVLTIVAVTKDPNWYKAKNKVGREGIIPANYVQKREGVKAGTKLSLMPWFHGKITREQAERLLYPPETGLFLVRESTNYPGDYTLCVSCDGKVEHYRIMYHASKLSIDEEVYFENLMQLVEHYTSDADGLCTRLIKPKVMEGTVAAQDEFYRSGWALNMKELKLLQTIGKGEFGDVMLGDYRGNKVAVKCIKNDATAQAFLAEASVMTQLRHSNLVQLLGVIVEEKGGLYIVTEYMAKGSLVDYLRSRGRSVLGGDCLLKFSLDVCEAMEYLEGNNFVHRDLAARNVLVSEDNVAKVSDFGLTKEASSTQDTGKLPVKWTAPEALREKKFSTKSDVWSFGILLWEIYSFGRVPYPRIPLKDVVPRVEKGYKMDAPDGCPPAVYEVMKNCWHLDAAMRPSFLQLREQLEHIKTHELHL

Row | Structure (SMILES) | pKd [1] | pKd [2] | pKd [3] | pKd [4] | pKd [5] | pKd [6] | pKd [7] | pKd [8] | pKd [9] | pKd [10] | pKd [11] | pKd [12] | pKd [13] | pKd [14] | pKd [15] | pKd [16] | pKd [17] | pKd [18] | pKd [19] | pKd (Ephrin type-A receptor 1) | further results
1 | CO[C@@H]1[C@H](NCCOCCOCCOCCNC(=O)CCC2=[N+]3C(=Cc4c(C)cc(C)n4[B-]3(F)F)C=C2)C[C@H]2O[C@]1(C)n1c3ccccc3c3c4c(c5c6ccccc6n2c5c31)C(=O)NC4 | 8.70 | 6.39 | 5.81 | 8.40 | 7.36 | 7.40 | 7.20 | 7.03 | 6.49 | 7.55 | 7.23 | 6.79 | 6.64 | 7.66 | 6.06 | 7.03 | 6.27 | 6.43 | 7.96 | 6.23 | pKd [20]: 8.22; pKd [21]: 7.85; pKd [22]: 8.22; pKd [23]: 8.22; pKd [24]: 7.19
2 | CO[C@@H]1[C@H](N(C)CCOCCOCCOCCNC(=O)CCC2=[N+]3C(=Cc4c(C)cc(C)n4[B-]3(F)F)C=C2)C[C@H]2O[C@]1(C)n1c3ccccc3c3c4c(c5c6ccccc6n2c5c31)C(=O)NC4 | 8.52 | 6.07 | 5.76 | 7.89 | 7.22 | 7.89 | 7.35 | 6.90 | 6.47 | 7.80 | 7.14 | 6.69 | 6.83 | 7.60 | 5.99 | 7.04 | 5.98 | 6.36 | 7.85 | 6.23 | pKd [20]: 8.15; pKd [21]: 7.89; pKd [22]: 8.52; pKd [23]: 8.40; pKd [24]: 7.18
